The kinase profiling compilation of Christmann-Franck et al. (2016)
Several values for one entry are separate records, joined by “and”; a condition that tells them apart may be missing. Identical values can stand only once.

Legend:
Experiment in all cases: radiometric filter-binding kinase assay, Kinase HotSpot
Settings in all cases: compound 0.5 µM; ATP 10 µM
CDK9 CCNK (human) = CDK9 CCNK (human) (UniProt O75909+P50750)
NTRK1 (human) = NTRK1 (human) (UniProt P04629)
GSK3B (human) = GSK3B (human) (UniProt P49841)
GRK6 (human) = GRK6 (human) (UniProt P43250)
DAPK3 (human) = DAPK3 (human) (UniProt O43293)
PRKCE (human) = PRKCE (human) (UniProt Q02156)
PLK3 (human) = PLK3 (human) (UniProt Q9H4B4)
ULK1 (human) = ULK1 (human) (UniProt O75385)
RPS6KB1 (human) = RPS6KB1 (human) (UniProt P23443)
RPS6KB1 (human), sequence (P23443 whole entry, looked up): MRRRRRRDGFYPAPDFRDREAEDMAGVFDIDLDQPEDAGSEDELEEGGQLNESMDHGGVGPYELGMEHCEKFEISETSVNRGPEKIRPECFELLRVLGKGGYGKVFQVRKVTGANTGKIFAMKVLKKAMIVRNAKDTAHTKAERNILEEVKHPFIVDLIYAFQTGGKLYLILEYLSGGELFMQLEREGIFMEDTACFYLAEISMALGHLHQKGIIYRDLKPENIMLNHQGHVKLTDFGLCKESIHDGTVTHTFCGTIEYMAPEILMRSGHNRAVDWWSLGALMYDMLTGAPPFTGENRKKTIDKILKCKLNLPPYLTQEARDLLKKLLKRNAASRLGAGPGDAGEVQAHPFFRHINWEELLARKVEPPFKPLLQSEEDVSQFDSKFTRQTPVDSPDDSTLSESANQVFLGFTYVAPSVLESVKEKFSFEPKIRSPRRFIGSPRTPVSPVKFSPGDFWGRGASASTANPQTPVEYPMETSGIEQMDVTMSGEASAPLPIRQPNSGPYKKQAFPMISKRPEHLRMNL

MAPKAPK3 (human) = MAPKAPK3 (human) (UniProt Q16644)
MELK (human) = MELK (human) (UniProt Q14680)
ROS1 (human) = ROS1 (human) (UniProt P08922)
PKN1 (human) = PKN1 (human) (UniProt Q16512)
SYK (human) = SYK (human) (UniProt P43405)
FYN (human) = FYN (human) (UniProt P06241)
CSNK1G2 (human) = CSNK1G2 (human) (UniProt P78368)
PRKCH (human) = PRKCH (human) (UniProt P24723)
CDK1 CCNB1 (human) = CDK1 CCNB1 (human) (UniProt P06493+P14635)
LTK (human) = LTK (human) (UniProt P29376)
EPHA1 (human) = EPHA1 (human) (UniProt P21709)
MYLK2 (human) = MYLK2 (human) (UniProt Q9H1R3)
MAP3K2 (human) = MAP3K2 (human) (UniProt Q9Y2U5)
MAPK14 (human) = MAPK14 (human) (UniProt Q16539)
MAPK14 (human), sequence (Q16539 whole entry, looked up): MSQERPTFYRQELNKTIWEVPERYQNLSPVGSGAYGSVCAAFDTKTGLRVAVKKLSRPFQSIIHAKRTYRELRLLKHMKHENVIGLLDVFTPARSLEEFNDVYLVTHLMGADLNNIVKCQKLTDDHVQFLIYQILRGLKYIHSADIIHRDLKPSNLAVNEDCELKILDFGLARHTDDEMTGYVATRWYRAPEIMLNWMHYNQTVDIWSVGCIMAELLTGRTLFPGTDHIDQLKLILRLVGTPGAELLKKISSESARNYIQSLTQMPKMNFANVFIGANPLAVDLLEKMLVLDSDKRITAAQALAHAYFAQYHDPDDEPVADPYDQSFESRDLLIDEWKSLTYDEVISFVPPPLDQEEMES

CDK5 CDK5R1 p35 (human) = CDK5 CDK5R1 p35 (human) (UniProt Q00535+Q15078)
EPHA3 (human) = EPHA3 (human) (UniProt P29320)
PRKG1 (human) = PRKG1 (human) (UniProt Q13976)
PRKG1 (human), sequence (Q13976 whole entry, looked up): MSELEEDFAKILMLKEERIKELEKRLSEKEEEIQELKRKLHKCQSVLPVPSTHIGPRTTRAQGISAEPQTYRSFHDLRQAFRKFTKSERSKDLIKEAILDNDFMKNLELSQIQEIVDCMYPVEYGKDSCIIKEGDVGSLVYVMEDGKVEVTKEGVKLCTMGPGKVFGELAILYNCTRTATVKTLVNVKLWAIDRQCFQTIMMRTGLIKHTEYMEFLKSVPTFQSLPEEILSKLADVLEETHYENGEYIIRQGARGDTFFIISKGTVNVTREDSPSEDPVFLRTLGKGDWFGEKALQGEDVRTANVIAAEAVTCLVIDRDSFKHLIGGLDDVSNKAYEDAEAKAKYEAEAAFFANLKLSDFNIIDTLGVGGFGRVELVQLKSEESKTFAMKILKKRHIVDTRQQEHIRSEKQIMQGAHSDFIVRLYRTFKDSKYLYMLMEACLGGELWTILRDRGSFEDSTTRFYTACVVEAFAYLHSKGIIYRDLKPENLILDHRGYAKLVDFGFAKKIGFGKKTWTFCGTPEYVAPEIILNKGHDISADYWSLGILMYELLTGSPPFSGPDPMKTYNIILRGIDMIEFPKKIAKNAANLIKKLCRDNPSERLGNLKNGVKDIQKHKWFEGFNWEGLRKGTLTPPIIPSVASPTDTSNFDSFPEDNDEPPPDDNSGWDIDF

CAMK2G (human) = CAMK2G (human) (UniProt Q13555)
FGR (human) = FGR (human) (UniProt P09769)
PNCK (human) = PNCK (human) (UniProt Q6P2M8)
PAK7 (human) = PAK7 (human) (UniProt Q9P286)
PAK1 (human) = PAK1 (human) (UniProt Q13153)
PAK1 (human), sequence (Q13153 whole entry, looked up): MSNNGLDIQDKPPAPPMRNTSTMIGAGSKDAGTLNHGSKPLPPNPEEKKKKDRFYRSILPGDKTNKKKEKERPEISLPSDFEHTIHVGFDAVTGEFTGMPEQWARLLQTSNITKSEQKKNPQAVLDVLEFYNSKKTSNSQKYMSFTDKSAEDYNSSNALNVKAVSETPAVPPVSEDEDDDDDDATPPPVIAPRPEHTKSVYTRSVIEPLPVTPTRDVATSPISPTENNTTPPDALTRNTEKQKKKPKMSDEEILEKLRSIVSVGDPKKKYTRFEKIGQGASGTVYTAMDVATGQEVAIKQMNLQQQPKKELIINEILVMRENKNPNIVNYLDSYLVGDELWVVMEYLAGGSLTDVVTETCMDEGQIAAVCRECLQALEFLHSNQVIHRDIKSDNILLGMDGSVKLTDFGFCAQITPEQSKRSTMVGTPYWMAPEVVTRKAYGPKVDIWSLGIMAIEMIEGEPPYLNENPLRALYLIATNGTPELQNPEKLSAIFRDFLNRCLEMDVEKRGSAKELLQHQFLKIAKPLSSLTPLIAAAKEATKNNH

CAMKK2 (human) = CAMKK2 (human) (UniProt Q96RR4)
CAMKK2 (human), sequence (Q96RR4 whole entry, looked up): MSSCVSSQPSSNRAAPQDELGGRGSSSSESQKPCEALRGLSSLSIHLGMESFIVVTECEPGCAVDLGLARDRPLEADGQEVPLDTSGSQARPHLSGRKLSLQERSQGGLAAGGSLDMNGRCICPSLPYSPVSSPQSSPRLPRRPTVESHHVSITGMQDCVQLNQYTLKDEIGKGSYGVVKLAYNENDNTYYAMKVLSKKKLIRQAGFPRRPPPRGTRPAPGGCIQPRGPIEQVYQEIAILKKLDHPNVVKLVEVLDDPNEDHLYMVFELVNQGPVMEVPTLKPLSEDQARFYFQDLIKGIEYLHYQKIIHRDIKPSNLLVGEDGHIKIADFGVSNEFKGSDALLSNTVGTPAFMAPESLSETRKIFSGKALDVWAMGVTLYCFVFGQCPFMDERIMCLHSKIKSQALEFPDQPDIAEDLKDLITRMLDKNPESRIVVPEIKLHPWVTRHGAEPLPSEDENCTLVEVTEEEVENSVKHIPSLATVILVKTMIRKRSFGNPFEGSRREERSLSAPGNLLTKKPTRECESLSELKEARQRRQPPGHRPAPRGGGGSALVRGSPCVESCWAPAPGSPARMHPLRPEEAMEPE

CHEK2 (human) = CHEK2 (human) (UniProt O96017)
CAMKK1 (human) = CAMKK1 (human) (UniProt Q8N5S9)
CAMKK1 (human), sequence (Q8N5S9 whole entry, looked up): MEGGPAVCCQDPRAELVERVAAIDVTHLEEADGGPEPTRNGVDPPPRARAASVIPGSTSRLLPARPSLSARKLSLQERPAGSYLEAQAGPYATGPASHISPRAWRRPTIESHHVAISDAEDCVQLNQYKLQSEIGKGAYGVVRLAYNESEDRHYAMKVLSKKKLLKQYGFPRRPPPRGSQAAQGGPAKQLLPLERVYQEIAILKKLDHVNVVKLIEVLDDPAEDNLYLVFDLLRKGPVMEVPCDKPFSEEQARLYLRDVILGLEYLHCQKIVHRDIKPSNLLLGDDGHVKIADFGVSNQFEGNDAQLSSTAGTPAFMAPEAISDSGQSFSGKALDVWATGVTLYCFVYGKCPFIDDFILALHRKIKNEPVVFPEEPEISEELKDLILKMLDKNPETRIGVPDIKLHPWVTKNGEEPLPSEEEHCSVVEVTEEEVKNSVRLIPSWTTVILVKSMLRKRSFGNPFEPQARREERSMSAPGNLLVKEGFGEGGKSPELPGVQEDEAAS

MAPK3 (human) = MAPK3 (human) (UniProt P27361)
FGFR2 (human) = FGFR2 (human) (UniProt P21802)
FRK (human) = FRK (human) (UniProt P42685)
MARK1 (human) = MARK1 (human) (UniProt Q9P0L2)
MARK1 (human), sequence (Q9P0L2 whole entry, looked up): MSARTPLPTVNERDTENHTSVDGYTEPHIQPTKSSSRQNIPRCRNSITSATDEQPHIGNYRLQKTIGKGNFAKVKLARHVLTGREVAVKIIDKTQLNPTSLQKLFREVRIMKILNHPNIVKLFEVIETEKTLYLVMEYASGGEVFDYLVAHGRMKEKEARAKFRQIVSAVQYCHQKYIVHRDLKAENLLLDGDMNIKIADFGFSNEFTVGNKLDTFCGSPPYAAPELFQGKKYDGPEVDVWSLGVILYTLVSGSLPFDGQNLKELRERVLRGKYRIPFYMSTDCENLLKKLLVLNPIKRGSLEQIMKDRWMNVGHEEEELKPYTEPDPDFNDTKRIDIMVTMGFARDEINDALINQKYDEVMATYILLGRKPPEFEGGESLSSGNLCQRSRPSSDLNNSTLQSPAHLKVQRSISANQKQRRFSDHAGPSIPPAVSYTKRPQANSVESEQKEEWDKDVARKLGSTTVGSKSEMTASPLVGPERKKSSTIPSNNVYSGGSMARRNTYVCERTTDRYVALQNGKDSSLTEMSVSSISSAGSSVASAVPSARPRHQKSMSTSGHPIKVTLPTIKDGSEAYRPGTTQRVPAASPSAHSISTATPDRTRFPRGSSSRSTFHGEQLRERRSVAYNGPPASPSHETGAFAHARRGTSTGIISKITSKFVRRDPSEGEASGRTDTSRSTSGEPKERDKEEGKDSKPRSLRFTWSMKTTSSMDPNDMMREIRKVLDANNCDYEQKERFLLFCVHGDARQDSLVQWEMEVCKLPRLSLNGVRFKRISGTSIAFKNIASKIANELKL

DYRK1B (human) = DYRK1B (human) (UniProt Q9Y463)
AURKA (human) = AURKA (human) (UniProt O14965)

CDK9 CCNK (human), sequence (O75909 whole entry, looked up): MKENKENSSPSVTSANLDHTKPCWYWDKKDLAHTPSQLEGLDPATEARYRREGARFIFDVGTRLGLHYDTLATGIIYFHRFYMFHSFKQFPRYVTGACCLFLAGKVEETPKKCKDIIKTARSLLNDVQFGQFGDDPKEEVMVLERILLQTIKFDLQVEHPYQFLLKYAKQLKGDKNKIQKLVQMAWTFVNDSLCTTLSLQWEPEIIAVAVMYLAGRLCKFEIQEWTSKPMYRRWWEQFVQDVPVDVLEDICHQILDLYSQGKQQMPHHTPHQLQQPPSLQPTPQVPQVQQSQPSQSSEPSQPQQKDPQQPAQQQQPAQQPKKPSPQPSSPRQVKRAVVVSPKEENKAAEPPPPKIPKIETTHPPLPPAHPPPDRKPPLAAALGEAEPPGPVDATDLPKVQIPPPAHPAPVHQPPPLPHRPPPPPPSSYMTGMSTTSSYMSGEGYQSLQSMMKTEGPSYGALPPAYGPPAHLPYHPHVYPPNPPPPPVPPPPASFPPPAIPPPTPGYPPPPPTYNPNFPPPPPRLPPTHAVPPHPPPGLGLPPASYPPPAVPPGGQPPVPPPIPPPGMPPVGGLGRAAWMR
CDK9 CCNK (human), sequence (P50750 whole entry, looked up): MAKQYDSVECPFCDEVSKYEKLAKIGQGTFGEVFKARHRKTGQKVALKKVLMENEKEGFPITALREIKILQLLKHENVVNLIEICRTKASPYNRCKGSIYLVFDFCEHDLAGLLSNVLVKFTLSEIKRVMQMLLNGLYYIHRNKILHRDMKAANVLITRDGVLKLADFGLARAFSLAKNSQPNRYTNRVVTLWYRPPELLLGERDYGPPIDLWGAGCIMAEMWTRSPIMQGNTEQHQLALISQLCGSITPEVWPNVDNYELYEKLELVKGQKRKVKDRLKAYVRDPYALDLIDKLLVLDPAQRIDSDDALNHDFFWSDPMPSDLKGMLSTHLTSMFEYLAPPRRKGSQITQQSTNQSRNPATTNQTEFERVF

O=C(Nc1cccc(Nc2nccc(Nc3cccc(C(F)(F)F)c3)n2)c1)C1CC1
residual activity (CDK9 CCNK (human)): 107% | residual activity (NTRK1 (human)): 98.1% | residual activity (GSK3B (human)): 101% | residual activity (GRK6 (human)): 93.8% | residual activity (DAPK3 (human)): 94.3% | residual activity (PRKCE (human)): 106% | residual activity (PLK3 (human)): 90.2% | residual activity (ULK1 (human)): 105% | residual activity (RPS6KB1 (human)): 98% | residual activity (MAPKAPK3 (human)): 93% | residual activity (MELK (human)): 101% | residual activity (ROS1 (human)): 65.5% | residual activity (PKN1 (human)): 93.3% | residual activity (SYK (human)): 101% | residual activity (FYN (human)): 54.1% | residual activity (CSNK1G2 (human)): 101% | residual activity (PRKCH (human)): 98.6% | residual activity (CDK1 CCNB1 (human)): 89.3% | residual activity (LTK (human)): 104% | residual activity (EPHA1 (human)): 81.8% | residual activity (MYLK2 (human)): 93.6% | residual activity (MAP3K2 (human)): 91.6% | residual activity (MAPK14 (human)): 91.5% | residual activity (CDK5 CDK5R1 p35 (human)): 105% | residual activity (EPHA3 (human)): 105% | residual activity (PRKG1 (human)): 97.6% and 99.3% | residual activity (CAMK2G (human)): 108% | residual activity (FGR (human)): 80.9% | residual activity (PNCK (human)): 106% | residual activity (PAK7 (human)): 89.2% | residual activity (PAK1 (human)): 89.5% | residual activity (CAMKK2 (human)): 99.5% | residual activity (CHEK2 (human)): 107% | residual activity (CAMKK1 (human)): 97.9% | residual activity (MAPK3 (human)): 98.2% | residual activity (FGFR2 (human)): 103% | residual activity (FRK (human)): 92.2% | residual activity (MARK1 (human)): 104% | residual activity (DYRK1B (human)): 96.3%

O=S(=O)(c1cccc2cnccc12)N1CCCNCC1
residual activity (CDK9 CCNK (human)): 86% | residual activity (NTRK1 (human)): 89.6% | residual activity (GSK3B (human)): 102% | residual activity (GRK6 (human)): 95.4% | residual activity (DAPK3 (human)): 93% | residual activity (PRKCE (human)): 76.5% | residual activity (PLK3 (human)): 102% | residual activity (ULK1 (human)): 103% | residual activity (RPS6KB1 (human)): 76.6% | residual activity (MAPKAPK3 (human)): 99.7% | residual activity (MELK (human)): 78.6% | residual activity (ROS1 (human)): 101% | residual activity (PKN1 (human)): 40.5% | residual activity (SYK (human)): 84.3% | residual activity (FYN (human)): 106% | residual activity (CSNK1G2 (human)): 93.7% | residual activity (PRKCH (human)): 84% | residual activity (CDK1 CCNB1 (human)): 92.7% | residual activity (LTK (human)): 95.2% | residual activity (EPHA1 (human)): 79.9% | residual activity (AURKA (human)): 101% | residual activity (MYLK2 (human)): 99.6% | residual activity (MAP3K2 (human)): 77.8% | residual activity (MAPK14 (human)): 104% | residual activity (EPHA3 (human)): 105% | residual activity (PRKG1 (human)): 79.6% and 87.7% | residual activity (CAMK2G (human)): 93.1% | residual activity (FGR (human)): 90.5% | residual activity (PNCK (human)): 91.6% | residual activity (PAK7 (human)): 73.1% | residual activity (PAK1 (human)): 94.6% | residual activity (CAMKK2 (human)): 95.9% | residual activity (CHEK2 (human)): 98.9% | residual activity (CAMKK1 (human)): 108% | residual activity (MAPK3 (human)): 96.1% | residual activity (FGFR2 (human)): 97.6% | residual activity (FRK (human)): 78.1% | residual activity (MARK1 (human)): 98.6% | residual activity (DYRK1B (human)): 96.3%

COc1ccc(COc2ccc(Cc3cnc(N)nc3N)cc2OC)cc1
residual activity (CDK9 CCNK (human)): 102% | residual activity (NTRK1 (human)): 51.3% | residual activity (GSK3B (human)): 97.8% | residual activity (GRK6 (human)): 99.8% | residual activity (DAPK3 (human)): 104% | residual activity (PRKCE (human)): 95.7% | residual activity (PLK3 (human)): 95.9% | residual activity (ULK1 (human)): 99.7% | residual activity (RPS6KB1 (human)): 89.5% | residual activity (MAPKAPK3 (human)): 96% | residual activity (MELK (human)): 102% | residual activity (ROS1 (human)): 99.9% | residual activity (PKN1 (human)): 101% | residual activity (SYK (human)): 89% | residual activity (FYN (human)): 102% | residual activity (CSNK1G2 (human)): 101% | residual activity (PRKCH (human)): 88.6% | residual activity (CDK1 CCNB1 (human)): 91.3% | residual activity (LTK (human)): 100% | residual activity (EPHA1 (human)): 85.7% | residual activity (AURKA (human)): 105% | residual activity (MYLK2 (human)): 104% | residual activity (MAP3K2 (human)): 108% | residual activity (MAPK14 (human)): 106% | residual activity (EPHA3 (human)): 109% | residual activity (PRKG1 (human)): 91.7% and 98.3% | residual activity (CAMK2G (human)): 94.4% | residual activity (FGR (human)): 92.3% | residual activity (PNCK (human)): 98.4% | residual activity (PAK7 (human)): 103% | residual activity (PAK1 (human)): 93.4% | residual activity (CAMKK2 (human)): 103% | residual activity (CHEK2 (human)): 107% | residual activity (CAMKK1 (human)): 115% | residual activity (MAPK3 (human)): 99.1% | residual activity (FGFR2 (human)): 102% | residual activity (MARK1 (human)): 103% | residual activity (DYRK1B (human)): 104%
